ChEMBL document CHEMBL1142712, “Identification of small molecule chemical inhibitors of the collagen-specific chaperone Hsp47” (J Med Chem, 2005)

molecular target: T1, Serpin H1 (Homo sapiens, UniProt P50454); assay: Inhibitory concentration against Hsp47 collagen chaperone in turbidity assay
T1 sequence (P50454 whole entry): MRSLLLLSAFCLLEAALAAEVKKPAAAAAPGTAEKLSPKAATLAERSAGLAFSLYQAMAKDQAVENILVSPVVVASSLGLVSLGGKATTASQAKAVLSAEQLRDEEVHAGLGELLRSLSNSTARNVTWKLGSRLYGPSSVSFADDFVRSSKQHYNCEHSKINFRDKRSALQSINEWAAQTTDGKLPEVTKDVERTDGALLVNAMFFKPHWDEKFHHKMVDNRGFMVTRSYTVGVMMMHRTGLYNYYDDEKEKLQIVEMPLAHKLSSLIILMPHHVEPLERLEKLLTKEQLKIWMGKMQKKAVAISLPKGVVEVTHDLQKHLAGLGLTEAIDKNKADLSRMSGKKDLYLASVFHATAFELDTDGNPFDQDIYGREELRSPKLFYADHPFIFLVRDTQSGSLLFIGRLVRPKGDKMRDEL

IC50	Compound
3.1 µM	COC(=O)c1cc(Cl)cc2c1N[S+]([O-])S2 (centres undefined)
26.6 µM	COc1ccc(C(C[N+](=O)[O-])Sc2ccc(N)cc2)cc1 (centres undefined)
26.6 µM	Nc1ccc(SC(C[N+](=O)[O-])c2ccc(F)cc2)cc1 (centres undefined)
6.3 µM	Cc1cc(C(=O)CSc2nc(O)c(C#N)c(-c3cccs3)n2)ccc1Cl
